Like-named read-outs stand apart in the source and are kept apart here.

The subject of test [1] is Sinapis alba myrosinase. Nature of the test: HPLC progress curves, pooled wavelengths. The test is classed as biochemical. Conditions: read-out: Km (μM) / HPLC, 0.1 M phosphate pH 7.4, 37 °C.
Test [2] concerns Sinapis alba myrosinase. Nature of the test: HPLC progress curves, pooled wavelengths. The test is classed as biochemical. Conditions: read-out: Km (μM) / HPLC; 0.1 M phosphate pH 7.4, 37 °C; 14.52 U/ml myrosinase.

On to `C=CC/C(=N/OS(=O)(=O)O)S[C@@H]1O[C@H](CO)[C@@H](O)[C@H](O)[C@H]1O` [compound 4, Sinigrin], for which, in the test with Sinapis alba myrosinase [1] (4.27 U/ml myrosinase), the Km amounted to 168 ± 17 µM.

For the compound `O=S(=O)(O)O/N=C(\S[C@@H]1O[C@H](CO)[C@@H](O)[C@H](O)[C@H]1O)c1ccccc1` [compound 5, Phenyl glucosinolate], in the test on Sinapis alba myrosinase [2], the Km is 1160 ± 70 µM.

Turning to `O=S(=O)(O)O/N=C(/Cc1ccccc1)S[C@@H]1O[C@H](CO)[C@@H](O)[C@H](O)[C@H]1O` [compound 6, glucotropaeolin], in the test with Sinapis alba myrosinase [1] (4.84 U/ml myrosinase), the Km worked out at 90.6 ± 6.8 µM.

The values above are taken from paper PMC4305510 (Analytical biochemistry, 2014).
